For series [1], the target named is FTO (Homo sapiens (Human), UniProt Q9C0B1). Briefly: FTO enzyme inhibition (m6A dsDNA substrate, DpnII digestion, gel readout). It counts as biochemical. As to conditions: for Inhibition rate: in vitro inhibition rate on FTO, compound at 50 μM. The protocol: High purity FTO protein was obtained by nickel column affinity chromatography purification.
After incubation at room temperature for 2 hrs, the reaction system was then slowly heated to 65° C. to inactivate, and 1 μM 39 nt of antisense strand DNA was added to anneal, thereby forming double strands. […] After Gel-Red dyeing, photos were taken with gel imaging system. The obtained band was subjected to gray scale reading to obtain inhibition rate.

The test system of series [2] is human small cell lung cancer cell lines (SCLC-21H). Briefly: MTS cytotoxicity on SCLC-21H cells. It counts as cell-based. As to conditions: for IC50: read-out: Cytotoxicity on cell line SCLC (IC50). The protocol: (§1) The following was a study of the cytotoxicity study of compound of 2-(substituted phenylhetero)aromatic formic acid of formula (I) and its derivatives as FTO inhibitors on solid tumors including human small cell lung cancer cell lines (SCLC-21H), human bone marrow rhabdomyosarcoma cell line (RH30) and pancreatic cancer cell Line (KP3):
(§2) SCLC-21H, RH30 and KP3 solid tumor cell lines were cultivated separately, and seeded at 5000 cells per well in 96 well plates. The cells were cultured until the cells were adherent, and different compounds were added and the cultivation was continued for 72 hours. 10 uL of MTS solution was directly added and the mixture was incubated for 4 h, and the absorbance was measured at 490 nm. The inhibition rate was calculated by using the DMSO group as a control.

For series [3], the system named is human bone marrow rhabdomyosarcoma cell line (RH30). Briefly: MTS cytotoxicity on RH30 cells. It counts as cell-based. The protocol: as §1, §2
The test system of series [4] is pancreatic cancer cell Line (KP3). Briefly: MTS cytotoxicity on KP3 cells. It counts as cell-based. The protocol:
as §1, §2

Read-outs that look alike come from different tables or passages of the source.

Sequence of FTO (Q9C0B1 whole entry): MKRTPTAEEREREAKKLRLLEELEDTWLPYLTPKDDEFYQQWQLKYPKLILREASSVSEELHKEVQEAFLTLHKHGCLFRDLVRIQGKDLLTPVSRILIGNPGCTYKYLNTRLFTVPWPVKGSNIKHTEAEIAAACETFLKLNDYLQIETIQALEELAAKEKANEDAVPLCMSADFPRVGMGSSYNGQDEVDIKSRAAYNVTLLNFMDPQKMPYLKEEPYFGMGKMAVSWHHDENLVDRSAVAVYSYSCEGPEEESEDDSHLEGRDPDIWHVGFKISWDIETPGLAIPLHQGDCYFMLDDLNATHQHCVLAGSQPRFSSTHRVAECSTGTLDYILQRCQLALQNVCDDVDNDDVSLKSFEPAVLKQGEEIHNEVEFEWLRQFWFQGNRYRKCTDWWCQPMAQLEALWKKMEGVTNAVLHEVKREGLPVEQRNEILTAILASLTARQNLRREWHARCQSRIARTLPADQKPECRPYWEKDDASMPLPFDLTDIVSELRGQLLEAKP

In the case of `O=C(NO)c1ccccc1Nc1c(Cl)cc(-c2cn[nH]c2)cc1Cl` [Compound 33], the IC50 in series [1] was under 1 µM; in series [2] it was 7.1 µM; in series [3], 4.1 µM; in series [4], 2.2 µM. The Inhibition rate in series [1] came to 63%. Also, the “Inhibition rate (human small cell lung cancer SCLC-21H)” value in series [2] (50 μM, 72 h) was found to be 83%. Moreover, the “Inhibition rate (human bone marrow rhabdomyosarcoma cell RH30)” value in series [3] (50 μM, 72 h) stood at 86%.
As for `Cc1noc(C)c1-c1cc(F)c(Nc2ccccc2C(=O)O)c(F)c1` [Compound 38], the IC50 was under 1 µM in series [1], 4.2 µM in series [2], 9.2 µM in series [3] and under 1 µM in series [4]. This molecule yielded an Inhibition rate in series [1] of 100%.
For `CCN(CC)CCNC(=O)c1ccccc1Nc1c(Cl)cc(-c2cc(F)cc(F)c2)cc1Cl` [Compound 83], the IC50 in series [3] and in series [4] was 4.7 µM each time.
Regarding `CCN(CC)CCNC(=O)c1cccnc1Nc1c(Cl)cc(-c2c(C)noc2C)cc1Cl` [Compound 78], the half-maximal inhibitory concentration (IC50) in series [2] turned out to be 5.1 µM; in series [3], 14.7 µM; in series [4], 8.7 µM.
In series [1], `CCN(CC)CCNC(=O)c1ccccc1Nc1c(Cl)cc(-c2cn[nH]c2)cc1Cl` [Compound 81] yielded an Inhibition rate of 67%. Besides, the “Inhibition rate (human small cell lung cancer SCLC-21H)” value in series [2] (50 μM, 72 h) stood at 83%. Besides, the IC50 was 9.2 µM in series [2], 1.3 µM in series [3] and under 1 µM in series [4]. Also, the “Inhibition rate (human bone marrow rhabdomyosarcoma cell RH30)” value in series [3] (50 μM, 72 h) came to 80%.
For the molecule `CCN(CC)CCNC(=O)c1ccccc1Nc1c(Cl)cc(-c2c(C)noc2C)cc1Cl` [Compound 79], the “Inhibition rate (human small cell lung cancer SCLC-21H)” value in series [2] (50 μM, 72 h) turned out to be 80%. Also, the concentration for half-maximal inhibition (IC50) was under 1 µM in series [2], 2.6 µM in series [3] and 2.6 µM in series [4]. For the same molecule, the “Inhibition rate (human bone marrow rhabdomyosarcoma cell RH30)” value in series [3] (50 μM, 72 h) came out at 79%.
As to `Cc1noc(C)c1-c1cc(Cl)c(Nc2ccccc2C(=O)NCCN2CCN(C)CC2)c(Cl)c1` [Compound 80], the Inhibition rate in series [1] stood at 29%. Also, in series [2] (50 μM, 72 h), the “Inhibition rate (human small cell lung cancer SCLC-21H)” value was determined as 86%. The results for the IC50 in series [2], in series [3] and in series [4] were under 1 µM, 2 µM and 2 µM, respectively. Further, the “Inhibition rate (human bone marrow rhabdomyosarcoma cell RH30)” value in series [3] (50 μM, 72 h) is recorded as 82%.
In series [1], `Cc1noc(C)c1-c1cc(Cl)c(Nc2ccccc2C(=O)NCCCN2CCOCC2)c(Cl)c1` [Compound 82] showed an Inhibition rate of 29%. Besides, the IC50 is 9.9 µM in series [2], 1.6 µM in series [3] and under 1 µM in series [4].
As for `Cc1noc(C)c1-c1cc(Cl)c(Nc2ccccc2C(=O)NO)c(Cl)c1` [Compound 25], the IC50 in series [1] is under 1 µM; in series [2] (Homo sapiens, SCLC-21H), 2.4 µM; in series [3] (Homo sapiens, Rh30), 2.9 µM; in series [4] (Pancreatic cancer cell), 2.9 µM. Also, the inhibition at 50 µM was determined as 46% in series [1] (read-out: Inhibition rate); 78% in series [2] (Homo sapiens, SCLC-21H, 50 μM, 72 h, read-out: Inhibition rate (human small cell lung cancer SCLC-21H)); 75% in series [3] (Homo sapiens, Rh30, 50 μM, 72 h, read-out: Inhibition rate (human bone marrow rhabdomyosarcoma cell RH30)).
As for `Cc1n[nH]cc1-c1cc(Cl)c(Nc2ccccc2C(=O)NO)c(Cl)c1` [Compound 31], the IC50 in series [1] is under 5 µM; in series [2] it was 7.2 µM; in series [3], 3.6 µM; in series [4], 6.2 µM. The molecule further registered an Inhibition rate in series [1] of 70%. In addition, the “Inhibition rate (human small cell lung cancer SCLC-21H)” value in series [2] (50 μM, 72 h) amounted to 75%. Also, the “Inhibition rate (human bone marrow rhabdomyosarcoma cell RH30)” value in series [3] (50 μM, 72 h) came to 70%.
Molecule `O=C(O)c1ccccc1Nc1cc(F)c(-c2ccncc2)c(F)c1` [Compound 49] showed an Inhibition rate in series [1] of 100%. The “Inhibition rate (human small cell lung cancer SCLC-21H)” value in series [2] (50 μM, 72 h) is 20%. Further, the “Inhibition rate (human bone marrow rhabdomyosarcoma cell RH30)” value in series [3] (50 μM, 72 h) came out at 51%.
In the case of `Cc1noc(C)c1-c1cc(F)c(Nc2ccccc2C(=O)NO)c(F)c1` [Compound 39], the IC50 in series [1] is under 1 µM; in series [2] it was 7.3 µM; in series [3], 3.2 µM; in series [4], 2.6 µM. The molecule also returned an Inhibition rate in series [1] of 90%.
Turning to `O=C(O)c1cc(F)ccc1Nc1c(Cl)cc(-c2ccncc2)cc1Cl` [Compound 70], the Inhibition rate in series [1] came out at 81%. For the same molecule, the “Inhibition rate (human small cell lung cancer SCLC-21H)” value in series [2] (50 μM, 72 h) amounted to 46%. For the same molecule, the “Inhibition rate (human bone marrow rhabdomyosarcoma cell RH30)” value in series [3] (50 μM, 72 h) was determined as 42%.
Consider `O=C(O)c1ccccc1Nc1c(F)cc(-c2ccncc2)cc1F` [Compound 37], for which, in series [1], the Inhibition rate worked out at 31%. The “Inhibition rate (human small cell lung cancer SCLC-21H)” value in series [2] (50 μM, 72 h) is 60%. Further, the “Inhibition rate (human bone marrow rhabdomyosarcoma cell RH30)” value in series [3] (50 μM, 72 h) is 21%.
For the molecule `Cc1n[nH]c(C)c1-c1cc(Cl)c(Nc2ccccc2C(=O)NO)c(Cl)c1` [Compound 32], in series [2] (50 μM, 72 h), the “Inhibition rate (human small cell lung cancer SCLC-21H)” value worked out at 70%. For the same molecule, the IC50 in series [2] worked out at 2.1 µM; in series [3], 5.3 µM; in series [4] it was 5.6 µM. Moreover, in series [3] (50 μM, 72 h), the “Inhibition rate (human bone marrow rhabdomyosarcoma cell RH30)” value is listed as 63%.

The values above are taken from patent US11555009B2, “2-(substituted benzene matrix) aromatic formate FTO inhibitor, preparation method therefor, and applications thereof” (SHANGHAI INSTITUTE OF MATERIA MEDICA, CHINESE ACADEMY OF …, priority 2017, dated 2023).
